Measured values published in patent US20250339567A1, “COMPOUNDS WITH IMPROVED PHARMACOKINETICS FOR IMAGING AND THERAPY OF CANCER” (priority 2019, published 2025).
Starred links: 1 amine or outer side, 2 acyl side, 3 side chain; linkers in the order of their positions; H or OH if unused. Non-standard residues stand in square brackets, D forms with d. Residues, ends and D or L forms follow the SMILES beside them. *: point of attachment. DOTA = O=C(O)CN1CCN(CC(=O)O)CCN(CC(=O)*)CCN(CC(=O)O)CC1; Sta = CC(C)C[C@H](N)[C@@H](O)CC(=O)O; Bta = N[C@@H](Cc1csc2ccccc12)C(=O)O; Gly(cPent) = N[C@H](C(=O)O)C1CCCC1; Trx = NC[C@H]1CC[C@H](C(=O)O)CC1; X1 = O=C(CN1CCC(N[*:1])CC1)[*:2]; Chg = N[C@H](C(=O)O)C1CCCCC1; hSer = N[C@@H](CCO)C(=O)O; Nle = CCCC[C@H](N)C(=O)O; βAla = NCCC(=O)O; Sar = CNCC(=O)O

Assay: Plasma studies: metabolic stability in vitro in human plasma (radio RP-HPLC)
Type: in vitro ADME
Protocol: Metabolic stability in vitro was determined applying a procedure published by Linder et al. that was slightly modified. Immediately after labeling, human (200 μL) or murine (100 μL) plasma was added and the mixture was incubated at 37° C. for 72±2 h (or 6±0.5 h). Proteins were precipitated by treatment with ice-cold EtOH (150 μL [human], 100 μL [murine]) and ice-cold MeCN (450 μL [human], 300 μL [murine]), followed by centrifugation for 20 min at 13000 rpm. The supernatants were decanted and further analyzed using radio RP-HPLC. […]

Amount of intact tracer after incubation in human plasma for 72 ± 2 h (n = 2)	Compound
2.5 ± 1.0	CC(C)C[C@H](NC(=O)C[C@H](O)[C@H](CC(C)C)NC(=O)[C@H](Cc1c[nH]cn1)NC(=O)CNC(=O)[C@@H](NC(=O)[C@H](C)NC(=O)[C@H](Cc1csc2ccccc12)NC(=O)[C@H](CCC(N)=O)NC(=O)[C@@H](Cc1ccccc1)NC(=O)CN1CCC(NC(=O)CN2CCN(CC(=O)O)CCN(CC(=O)O)CCN(CC(=O)O)CC2)CC1)C1CCCCC1)C(N)=O [DOTA-[Bta^8, Chg^10]MJ9] ({DOTA}-[X1][dF]Q[Bta]A[Chg]GH[Sta]L-NH2)
2.2 ± 0.5	CC(C)C[C@H](NC(=O)C[C@H](O)[C@H](CC(C)C)NC(=O)[C@H](Cc1c[nH]cn1)NC(=O)CNC(=O)[C@@H](NC(=O)[C@H](C)NC(=O)[C@H](Cc1csc2ccccc12)NC(=O)[C@H](CCC(N)=O)NC(=O)[C@@H](Cc1ccccc1)NC(=O)CN1CCC(NC(=O)CN2CCN(CC(=O)O)CCN(CC(=O)O)CCN(CC(=O)O)CC2)CC1)C1CCCC1)C(N)=O [DOTA-[Bta^8, Cpg^10]MJ9] ({DOTA}-[X1][dF]Q[Bta]A[Gly(cPent)]GH[Sta]L-NH2)
3.0 ± 0.2	CC(C)C[C@H](NC(=O)C[C@H](O)[C@H](CC(C)C)NC(=O)[C@H](Cc1c[nH]cn1)NC(=O)CN(C)C(=O)[C@@H](NC(=O)[C@H](C)NC(=O)[C@H](Cc1csc2ccccc12)NC(=O)[C@H](CCC(N)=O)NC(=O)[C@@H](Cc1ccccc1)NC(=O)CN1CCC(NC(=O)CN2CCN(CC(=O)O)CCN(CC(=O)O)CCN(CC(=O)O)CC2)CC1)C(C)C)C(N)=O [DOTA-[Bta^8, N—Me-Gly^11]MJ9] ({DOTA}-[X1][dF]Q[Bta]AV[Sar]H[Sta]L-NH2)
1.5 ± 0.2	CC(C)C[C@H](NC(=O)C[C@H](O)[C@H](CC(C)C)NC(=O)[C@H](Cc1c[nH]cn1)NC(=O)CNC(=O)[C@@H](NC(=O)[C@H](CO)NC(=O)[C@H](Cc1csc2ccccc12)NC(=O)[C@H](CCC(N)=O)NC(=O)[C@@H](Cc1ccccc1)NC(=O)CN1CCC(NC(=O)CN2CCN(CC(=O)O)CCN(CC(=O)O)CCN(CC(=O)O)CC2)CC1)C(C)C)C(N)=O [DOTA-[Bta^8, Ser^9]MJ9] ({DOTA}-[X1][dF]Q[Bta]SVGH[Sta]L-NH2)
0 ± 0	CCCC[C@H](NC(=O)[C@H](Cc1ccccc1)NC(=O)[C@H](Cc1c[nH]cn1)NC(=O)CCNC(=O)[C@@H](NC(=O)[C@H](C)NC(=O)[C@H](Cc1csc2ccccc12)NC(=O)[C@H](CCC(N)=O)NC(=O)[C@@H](Cc1ccccc1)NC(=O)CN1CCN(CC(=O)O)CCN(CC(=O)O)CCN(CC(=O)O)CC1)C(C)C)C(N)=O [DOTA-[Bta^8]UL] ({DOTA}-[dF]Q[Bta]AV[βAla]HF[Nle]-NH2)
8.4 ± 0.9	CC(C)C[C@H](NC(=O)C[C@H](O)[C@H](CC(C)C)NC(=O)[C@H](Cc1c[nH]cn1)NC(=O)CNC(=O)[C@@H](NC(=O)[C@H](C)NC(=O)[C@H](Cc1c[nH]c2ccccc12)NC(=O)[C@H](CCC(N)=O)NC(=O)[C@@H](Cc1ccccc1)NC(=O)CN1CCC(NC(=O)CN2CCN(CC(=O)O)CCN(CC(=O)O)CCN(CC(=O)O)CC2)CC1)C1CCCCC1)C(N)=O [DOTA-[Chg^10]MJ9] ({DOTA}-[X1][dF]QWA[Chg]GH[Sta]L-NH2)
25.3 ± 1.4	CC(C)C[C@H](NC(=O)C[C@H](O)[C@H](CC(C)C)NC(=O)[C@H](Cc1c[nH]cn1)NC(=O)CNC(=O)[C@@H](NC(=O)[C@H](C)NC(=O)[C@H](Cc1c[nH]c2ccccc12)NC(=O)[C@H](CCC(N)=O)NC(=O)[C@@H](Cc1ccccc1)NC(=O)CN1CCC(NC(=O)CN2CCN(CC(=O)O)CCN(CC(=O)O)CCN(CC(=O)O)CC2)CC1)C1CCCC1)C(N)=O [DOTA-[Cpg^10]MJ9] ({DOTA}-[X1][dF]QWA[Gly(cPent)]GH[Sta]L-NH2)
33.4 ± 1.0	CC(C)C[C@H](NC(=O)C[C@H](O)[C@H](CC(C)C)NC(=O)[C@H](Cc1c[nH]cn1)NC(=O)CNC(=O)[C@@H](NC(=O)[C@H](C)NC(=O)[C@H](Cc1c[nH]c2ccccc12)NC(=O)[C@H](CCO)NC(=O)[C@@H](Cc1ccccc1)NC(=O)CN1CCC(NC(=O)CN2CCN(CC(=O)O)CCN(CC(=O)O)CCN(CC(=O)O)CC2)CC1)C1CCCCC1)C(N)=O [DOTA-[Hse^7, Chg^10]MJ9] ({DOTA}-[X1][dF][hSer]WA[Chg]GH[Sta]L-NH2)
28.1 ± 2.4	CC(C)C[C@H](NC(=O)C[C@H](O)[C@H](CC(C)C)NC(=O)[C@H](Cc1c[nH]cn1)NC(=O)CNC(=O)[C@@H](NC(=O)[C@H](C)NC(=O)[C@H](Cc1c[nH]c2ccccc12)NC(=O)[C@H](CCO)NC(=O)[C@@H](Cc1ccccc1)NC(=O)CN1CCC(NC(=O)CN2CCN(CC(=O)O)CCN(CC(=O)O)CCN(CC(=O)O)CC2)CC1)C1CCCC1)C(N)=O [DOTA-[Hse^7, Cpg^10]MJ9] ({DOTA}-[X1][dF][hSer]WA[Gly(cPent)]GH[Sta]L-NH2)
13.8 ± 0.7	CC(C)C[C@H](NC(=O)C[C@H](O)[C@H](CC(C)C)NC(=O)[C@H](Cc1c[nH]cn1)NC(=O)CN(C)C(=O)[C@@H](NC(=O)[C@H](C)NC(=O)[C@H](Cc1c[nH]c2ccccc12)NC(=O)[C@H](CCO)NC(=O)[C@@H](Cc1ccccc1)NC(=O)CN1CCC(NC(=O)CN2CCN(CC(=O)O)CCN(CC(=O)O)CCN(CC(=O)O)CC2)CC1)C(C)C)C(N)=O [DOTA-[Hse^7, N—Me-Gly^11]MJ9] ({DOTA}-[X1][dF][hSer]WAV[Sar]H[Sta]L-NH2)
14.5 ± 0.8	CC(C)C[C@H](NC(=O)C[C@H](O)[C@H](CC(C)C)NC(=O)[C@H](Cc1c[nH]cn1)NC(=O)CNC(=O)[C@@H](NC(=O)[C@H](CO)NC(=O)[C@H](Cc1c[nH]c2ccccc12)NC(=O)[C@H](CCO)NC(=O)[C@@H](Cc1ccccc1)NC(=O)CN1CCC(NC(=O)CN2CCN(CC(=O)O)CCN(CC(=O)O)CCN(CC(=O)O)CC2)CC1)C(C)C)C(N)=O [DOTA-[Hse^7, Ser^9]MJ9] ({DOTA}-[X1][dF][hSer]WSVGH[Sta]L-NH2)
0.9 ± 0.9	CCCC[C@H](NC(=O)[C@H](Cc1ccccc1)NC(=O)[C@H](Cc1c[nH]cn1)NC(=O)CCNC(=O)[C@@H](NC(=O)[C@H](C)NC(=O)[C@H](Cc1c[nH]c2ccccc12)NC(=O)[C@H](CCO)NC(=O)[C@@H](Cc1ccccc1)NC(=O)CN1CCN(CC(=O)O)CCN(CC(=O)O)CCN(CC(=O)O)CC1)C(C)C)C(N)=O [DOTA-[Hse^7]UL] ({DOTA}-[dF][hSer]WAV[βAla]HF[Nle]-NH2)
6.3 ± 0.6	CC(C)C[C@H](NC(=O)C[C@H](O)[C@H](CC(C)C)NC(=O)[C@H](Cc1c[nH]cn1)NC(=O)CN(C)C(=O)[C@@H](NC(=O)[C@H](C)NC(=O)[C@H](Cc1c[nH]c2ccccc12)NC(=O)[C@H](CCC(N)=O)NC(=O)[C@@H](Cc1ccccc1)NC(=O)CN1CCC(NC(=O)CN2CCN(CC(=O)O)CCN(CC(=O)O)CCN(CC(=O)O)CC2)CC1)C(C)C)C(N)=O [DOTA-[N—Me-Gly^11]MJ9]
9.8 ± 4.3	CC(C)C[C@H](NC(=O)C[C@H](O)[C@H](CC(C)C)NC(=O)[C@H](Cc1c[nH]cn1)NC(=O)CNC(=O)[C@@H](NC(=O)[C@H](CO)NC(=O)[C@H](Cc1c[nH]c2ccccc12)NC(=O)[C@H](CCC(N)=O)NC(=O)[C@@H](Cc1ccccc1)NC(=O)CN1CCC(NC(=O)CN2CCN(CC(=O)O)CCN(CC(=O)O)CCN(CC(=O)O)CC2)CC1)C(C)C)C(N)=O [DOTA-[Ser^9]MJ9] ({DOTA}-[X1][dF]QWSVGH[Sta]L-NH2)
27.1 ± 2.1	CC(C)C[C@H](NC(=O)C[C@H](O)[C@H](CC(C)C)NC(=O)[C@H](Cc1c[nH]cn1)NC(=O)CNC(=O)[C@@H](NC(=O)[C@H](C)NC(=O)[C@H](Cc1csc2ccccc12)NC(=O)[C@H](CCC(N)=O)NC(=O)[C@@H](Cc1ccccc1)NC(=O)[C@H]1CC[C@H](CNC(=O)CN2CCN(CC(=O)O)CCN(CC(=O)O)CCN(CC(=O)O)CC2)CC1)C(C)C)C(N)=O [DOTA-[Txa^5, Bta^8]MJ9] ({DOTA-Trx}-[dF]Q[Bta]AVGH[Sta]L-NH2)
26.7 ± 1.3	CC(C)C[C@H](NC(=O)C[C@H](O)[C@H](CC(C)C)NC(=O)[C@H](Cc1c[nH]cn1)NC(=O)CNC(=O)[C@@H](NC(=O)[C@H](C)NC(=O)[C@H](Cc1c[nH]c2ccccc12)NC(=O)[C@H](CCO)NC(=O)[C@@H](Cc1ccccc1)NC(=O)[C@H]1CC[C@H](CNC(=O)CN2CCN(CC(=O)O)CCN(CC(=O)O)CCN(CC(=O)O)CC2)CC1)C(C)C)C(N)=O [DOTA-[Txa^5, Hse^7]MJ9] ({DOTA-Trx}-[dF][hSer]WAVGH[Sta]L-NH2)
30.6 ± 0.8	CC(C)C[C@H](NC(=O)C[C@H](O)[C@H](CC(C)C)NC(=O)[C@H](Cc1c[nH]cn1)NC(=O)CNC(=O)[C@@H](NC(=O)[C@H](C)NC(=O)[C@](C)(Cc1c[nH]c2ccccc12)NC(=O)[C@H](CCC(N)=O)NC(=O)[C@@H](Cc1ccccc1)NC(=O)[C@H]1CC[C@H](CNC(=O)CN2CCN(CC(=O)O)CCN(CC(=O)O)CCN(CC(=O)O)CC2)CC1)C(C)C)C(N)=O [DOTA-[Txa^5, α-Me-Trp^8]MJ9]
24.8 ± 0.3	CC(C)C[C@H](NC(=O)C[C@H](O)[C@H](CC(C)C)NC(=O)[C@H](Cc1c[nH]cn1)NC(=O)CNC(=O)[C@@H](NC(=O)[C@H](C)NC(=O)[C@H](Cc1c[nH]c2ccccc12)NC(=O)[C@H](CCC(N)=O)NC(=O)[C@@H](Cc1ccccc1)NC(=O)[C@H]1CC[C@H](CNC(=O)CN2CCN(CC(=O)O)CCN(CC(=O)O)CCN(CC(=O)O)CC2)CC1)C(C)C)C(N)=O [DOTA-[Txa^5]MJ9]
6.6 ± 2.0	CC(C)C[C@H](NC(=O)C[C@H](O)[C@H](CC(C)C)NC(=O)[C@H](Cc1c[nH]cn1)NC(=O)CNC(=O)[C@@H](NC(=O)[C@H](C)NC(=O)[C@H](Cc1csc2ccccc12)NC(=O)[C@H](CCC(N)=O)NC(=O)[C@@H](CCCNC(=N)N)NC(=O)CN1CCC(NC(=O)CN2CCN(CC(=O)O)CCN(CC(=O)O)CCN(CC(=O)O)CC2)CC1)C(C)C)C(N)=O [DOTA-[arg^6, Bta^8]MJ9] ({DOTA}-[X1][dR]Q[Bta]AVGH[Sta]L-NH2)
